Source: patent US7691387B2, “Cinnamomi and poria composition, method to prepare same and uses thereof” (Jiangsu Kanion Pharmaceutical Co., Ltd, priority 2000, dated 2010)
Where two headings read alike, the source gives them in different places.

Columns and labels:
[1] = cited from earlier work
[2] = test system: uterine smooth muscle induced by oxytocin; assay: Contraction of uterine smooth muscle induced by oxytocin; design: species or system Wister rats; contraction frequency: unit not given here; conditions: for contraction frequency: oxytocin 10 mu/ml alone; for contraction activity / contraction activity, controlling % / contraction frequency, controlling % / contraction range / contraction range, controlling %: oxytocin alone
Protocol: (§1) Twenty-four hours prior to the experiment, intramuscularly inject non-pregnant female rats with a 0.3 mg/kg weight-dose of Dihydrotheelin. The effect artificially puts them in estrus period so as to increase their sensitivity to the CCP. Decapitate the rats, rapidly paunch, take out the uterus and remove the fat. Cut the uterus in 2 cm of length and put it directly in the homothermic flume with 9 ml of the Locke's solution. One end of the uterus must be fixed on the crotchet of the L shaped ventilating pipe and the other end connected to the Muscle Tension Transducer. Keep the temperature of the homothermic flume at 32° C. Continuously emit oxygen into the fume, at least 60-80 bladders per minute and add in 1 ml of the previous solution with a different concentration. After recording a segment of normal contraction curve, observe the different phases before-and-after administering the drug. Respectively, record the contraction frequency and range. Observe from 1 to 10, 10 to 20, and 20 to 30 minutes before-and-after adding the drug solution. Count the uterine activity, and record data between control groups before-and-after administering the drug.
Observe CCP's effect in smooth muscle contraction of rats' extracorporeal uterine induced by oxytocin. Respectively, record the contraction frequency and range. Observe from 1 to 10, 10 to 20, and 20 to 30 minutes before-and-after adding the drug solution. Count the uterine activity and the inhibitory percentage. Record data as previously done.
Animals' Grouping: randomly divide Wister female rats' extra-corporeal uteruses into normal saline control group (NSG) and CCP's group. The CCP's group is formed by 4 subgroups with seven uteruses each. The dose of CCP's extract is respectively 5.4, 2.7, 1.3, and 0.6 mg/ml.
Results: after adding 10 mu/ml oxytocin to the normal uterine smooth muscle there is an increase of the contraction frequency and the uterine activity. The contraction range is also affected reaching its peak for about 10 min to then stabilize on the level. After 40 minutes, the effect gradually drops. After the oxytocin reacts for 10 minutes, add in a different dose of CCP's extract, and compare the possible differences between the CCP's group and the oxytocin's group. A 5.4, 2.7 mg/ml dose of CCP's extract can control the increase of uterine activity induced by oxytocin, and mainly reduce contraction frequency of uterine smooth muscle (See Table 8 and 13).

[3] = test system: mice bone marrow cells; assay: Micronucleus test; type: in vivo, ICR mouse
Protocol: 30 mice were randomly divided into 5 groups, each group contained 6 animals. Three of the groups were drug-groups and animals in them were given to CCP by gastric gavage at doses of 2.5 g/kg/day, 1.25 g/kg/day and 0.625 g/kg/day for 2 days. (LD50 of CCP from an acute toxicity test was 5 g/Kg, we adopted a half dose for our study). The fourth group is given to normal saline (0.5 ml/mice) as a negative control group. The last group was given to cyclophosphamide(CP) at 40 mg/Kg via abdominal cavity injection as a positive control group.
Animals were killed 24 hours after administration. Both femurs of the mice were taken for sampling. Femurs were pressed to move out the marrow, with a drop of calf serum added to it, smear the marrow on a plate. After the smeared plate was fixed in the solution of methyl for 10 minutes, it was dyed with the Giemsa's method and observed under the oil lens of a microscope. In the principle of double-blinded study, PCE and MNPCE cells were counted. 1000 PCE and MNPCE cell were counted for each mice, calculated the ratio of micronuclei over the 1000 cells. The ratio of micronuclei represents the dose-effectiveness relation. The data was analyzed with statistical t test.

[4] = test system: rats' extra-corporeal uterine smooth muscle; assay: Contraction of normal rats' extra-corporeal uterine smooth muscle; design: species or system Wister rats; conditions: 7 μg/ml
Protocol: a) Put 5.4g extract of CCP in 100 ml of the Locke's solution and mixed thoroughly. The drug concentration results in 54 mg/ml. Take 1 ml of this solution, put it into a homothermic flume with 9 ml of the Locke's solution. The drug concentration from this mixture contains 5.4 mg/ml. Likewise, put 2.7 g extract of CCP in 100 ml of the Locke's solution and mixed thoroughly. Take 1 ml of this mixture, combine it with 9 ml of Locke's solution and the drug concentration will result in 2.7 mg/ml. Mix up 100 ml of the Locke's solution with a 1.9 g CCP's extract. Take 1 ml of this mixture, combine it with 9 ml of the Locke's solution and the drug concentration will result in 1.9 mg/ml. Mix 200 ml of the Locke's solution with 2.6 of CCP's extract, the concentration will result in 13 mg/ml. Take 1 ml of this mixture, combine it with 9 ml of the Locke's solution which results in a drug concentration of 1.3 mg/ml. Mix 200 ml or 300 ml of the Locke's solution with 1.8 CCP's resulting in a drug concentration of 9 mg/ml and 6 mg/ml respectively. Take 1 ml of this mixture into homothermic flume with 9 ml of the Locke's solution. The result is a drug concentration containing 0.9 mg/ml and 0.6 mg/ml respectively
9.0 of NaCL, 0.42 of KCL, 0.24 of CaCL2, 0.2 of NaHCO3 and 1.0 g of glucose. Mixed with distilled water until obtaining 1000 ml. PH is about 7.
as §1
Animals' Grouping: randomly divide the Wister female rats' extracorporeal uteruses into a normal saline control group (NSG) and a CCP group (CCPG). […]

[5] = cyclophosphamide 40 mg/Kg, per 1000 cells

## N#C[C@H](O[C@@H]1O[C@H](CO[C@@H]2O[C@H](CO)[C@@H](O)[C@H](O)[C@H]2O)[C@@H](O)[C@H](O)[C@H]1O)c1ccccc1 [Amygdalin, Benzeneacetonitrile, α-[(6-O-β-D-glucopyranosyl-β-D-glucopyranosyl)oxy]-, (R)—]
[1]; boiling ethanol
  volume in which 1 g resolves: 11 mL
[1]; ethanol
  volume in which 1 g resolves: 900 mL
[1]; water
  volume in which 1 g resolves: 12 mL

## CC[C@H](C)[C@@H]1NC(=O)[C@H](Cc2ccc(O)cc2)NC(=O)[C@@H](N)CSSC[C@@H](C(=O)N2CCC[C@H]2C(=O)N[C@@H](CC(C)C)C(=O)NCC(N)=O)NC(=O)[C@H](CC(N)=O)NC(=O)[C@H](CCC(N)=O)NC1=O [Oxytocin]
[2]; after adm. 1-10 mins
  contraction frequency: 11.7 ± 1.5
  contraction activity: 118.8 ± 77.6%
  contraction activity, controlling %: −108.8%
  contraction frequency, controlling %: −67.1%
  contraction range: 9.7 ± 5.0 mm
  contraction range, controlling %: −21.3%
[2]; after adm. 10-20 mins
  contraction frequency: 11.6 ± 1.9
  contraction activity: 129.6 ± 97.3%
  contraction activity, controlling %: −127.8%
  contraction frequency, controlling %: −65.7%
  contraction range: 10.4 ± 5.7 mm
  contraction range, controlling %: −30.0%
[2]; after adm. 20-30 mins
  contraction frequency: 10.9 ± 1.17
  contraction activity: 111.2 ± 86.5%
  contraction activity, controlling %: −95.4%
  contraction frequency, controlling %: −55.7%
  contraction range: 9.7 ± 6.1 mm
  contraction range, controlling %: −21.3%
[2]; before adm.
  contraction frequency: 7.0 ± 1.3
  contraction activity: 56.9 ± 21.6%
  contraction range: 8.0 ± 2.6 mm
[2]; column Before adm.
  contraction range, controlling %: 8.8%
[2]; column Oxytocin
  contraction activity: 84.7 ± 22.0%
  contraction activity, controlling %: −48.9%
  contraction frequency, controlling %: −91.4%
  contraction range: 7.3 ± 3.2 mm

## O=P1(N(CCCl)CCCl)NCCCO1 (stereo not shown) [Positive control, cyclophosphamide]
[3]; cyclophosphamide 40 mg/Kg abdominal cavity injection, 6000 PCE cells
  number of Micronuclei: 381
[3]; [5]
  incidence of micronuclei, Range: 43-98
  incidence of micronuclei, X ± SD: 63.5000 ± 20.6373
[3]; cyclophosphamide injection 40 mg/Kg
  incidence of micronucleus: obviously higher than the negative control

## Pregnendione [Progestin]
[4]
  contraction frequency of rats' uterine smooth muscle: can control contraction frequency
[4]; after adm. 0-20 mins
  contraction frequency: 6.3 ± 2.5 time/10 mins
[4]; after adm. 1-10 mins
  contraction activity: 47.2 ± 22.9%
  contraction activity, controlling %: 31.9%
  contraction frequency: 6.1 ± 2.0 time/10 mins
  contraction frequency, controlling percentage: 23.8%
  contraction range: 7.4 ± 2.3 mm
  contraction range, controlling percent: 14.0%
[4]; after adm. 10-20 mins
  contraction activity: 46.3 ± 27.9%
  contraction activity, controlling %: 33.2%
  contraction frequency, controlling percentage: 21.3%
  contraction range: 7.0 ± 2.6 mm
  contraction range, controlling percent: 18.6%
[4]; after adm. 20-30 mins
  contraction activity: 35.2 ± 22.5%
  contraction activity, controlling %: 49.2%
  contraction frequency: 5.0 ± 2.4 time/10 mins
  contraction frequency, controlling percentage: 37.5%
  contraction range: 7.0 ± 2.8 mm
  contraction range, controlling percent: 18.6%
[4]; before adm.
  contraction activity: 69.3 ± 20.9%
  contraction frequency: 8.0 ± 0.8 time/10 mins
  contraction range: 8.6 ± 2.2 mm
